Source: PubChem BioAssay (NCI)
Values joined by “and” are separate entries in the source; they are usually repeats but may differ in a detail not shown here. Identical values can stand only once.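 Where inhibition never reached the appropriate level, the endpoint shown equals the highest concentration tested. Otherwise, values were interpolated linearly from a five-concentration, 48-hour dose response in 96-well plates. GI50 marks 50% less growth. TGI denotes the concentration required for complete inhibition of growth.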

Key:
Assay in all cases: NCI tumour cell line growth inhibition, 48 h
ACHN renal = system: ACHN renal
786-0 renal = system: 786-0 renal
UO-31 renal = system: UO-31 renal
A549 NSCLC = system: A549 NSCLC
K-562 leukemia = system: K-562 leukemia
NCI/ADR-RES ovarian = system: NCI/ADR-RES ovarian
OVCAR-4 ovarian = system: OVCAR-4 ovarian
BT-549 breast = system: BT-549 breast
RPMI-8226 leukemia = system: RPMI-8226 leukemia
UACC-257 melanoma = system: UACC-257 melanoma
OVCAR-3 ovarian = system: OVCAR-3 ovarian
HL-60(TB) leukemia = system: HL-60(TB) leukemia
SN12C renal = system: SN12C renal
MALME-3M melanoma = system: MALME-3M melanoma
EKVX NSCLC = system: EKVX NSCLC
HOP-92 NSCLC = system: HOP-92 NSCLC
UACC-62 melanoma = system: UACC-62 melanoma
HT29 colon = system: HT29 colon
RXF 393 renal = system: RXF 393 renal
HCT-116 colon = system: HCT-116 colon
SF-295 CNS = system: SF-295 CNS
KM12 colon = system: KM12 colon
MDA-N = system: MDA-N
T-47D breast = system: T-47D breast
IGROV1 ovarian = system: IGROV1 ovarian
M14 melanoma = system: M14 melanoma
NCI-H226 lung = system: NCI-H226 lung
TK-10 renal = system: TK-10 renal
U251 CNS = system: U251 CNS
DU-145 prostate = system: DU-145 prostate
SK-MEL-5 melanoma = system: SK-MEL-5 melanoma
SNB-19 CNS = system: SNB-19 CNS
SNB-75 CNS = system: SNB-75 CNS
SK-OV-3 ovarian = system: SK-OV-3 ovarian
SK-MEL-2 melanoma = system: SK-MEL-2 melanoma
HOP-62 NSCLC = system: HOP-62 NSCLC
MDA-MB-435 = system: MDA-MB-435
HCT-15 colon = system: HCT-15 colon
NCI-H522 lung = system: NCI-H522 lung
OVCAR-5 ovarian = system: OVCAR-5 ovarian
MOLT-4 leukemia = system: MOLT-4 leukemia
MDA-MB-231 breast = system: MDA-MB-231 breast
HCC-2998 colon = system: HCC-2998 colon
SF-539 CNS = system: SF-539 CNS
PC-3 prostate = system: PC-3 prostate
SW-620 colon = system: SW-620 colon
SK-MEL-28 melanoma = system: SK-MEL-28 melanoma
MCF7 breast = system: MCF7 breast
SR leukemia = system: SR leukemia
LOX IMVI melanoma = system: LOX IMVI melanoma
NCI-H23 lung = system: NCI-H23 lung
CCRF-CEM leukemia = system: CCRF-CEM leukemia
CAKI-1 renal = system: CAKI-1 renal
NCI-H460 lung = system: NCI-H460 lung
HS 578T breast = system: HS 578T breast
SF-268 CNS = system: SF-268 CNS
OVCAR-8 ovarian = system: OVCAR-8 ovarian
A498 renal = system: A498 renal
COLO 205 colon = system: COLO 205 colon

C=C1C(C(O)C[C@H](C)C2O[C@@]3(CCCCO3)CCC2C)O[C@@H]2CCC3(CCC(/C=C/[C@@H](C)C4CC(C)=CC5(O4)O[C@H](C[C@](C)(O)C(=O)O)CCC5O)O3)OC2[C@@H]1O (stereo not given in full)
GI50 (ACHN renal): 25.9 nM | TGI (ACHN renal): 101 nM and 61.8 nM | GI50 (786-0 renal): 10.8 nM | TGI (786-0 renal): 27.2 nM and 34.3 nM | GI50 (UO-31 renal): 96 nM | TGI (UO-31 renal): 238 nM and 101 nM | GI50 (A549 NSCLC): 47.7 nM | TGI (A549 NSCLC): 255 nM and 258 nM | TGI (K-562 leukemia): 163 nM and 303 nM | GI50 (NCI/ADR-RES ovarian): 111 nM | TGI (NCI/ADR-RES ovarian): > 1000 nM and 778 nM | GI50 (OVCAR-4 ovarian): 23.1 nM | TGI (OVCAR-4 ovarian): 89.8 nM and 62.7 nM | GI50 (BT-549 breast): 3.37 nM | TGI (BT-549 breast): 11.5 nM and 27.6 nM | GI50 (RPMI-8226 leukemia): 4.22 nM | TGI (RPMI-8226 leukemia): 31.4 nM and 17.3 nM | GI50 (UACC-257 melanoma): 13.7 nM | TGI (UACC-257 melanoma): 34.2 nM and 23.3 nM | GI50 (OVCAR-3 ovarian): 12.1 nM | TGI (OVCAR-3 ovarian): 31.6 nM and 9.27 nM | GI50 (HL-60(TB) leukemia): 1.62 nM | TGI (HL-60(TB) leukemia): 7.8 nM and 16 nM | GI50 (SN12C renal): 20.2 nM | GI50 (MALME-3M melanoma): 9.97 nM | GI50 (EKVX NSCLC): 19.2 nM | TGI (EKVX NSCLC): 124 nM and 17.4 nM | GI50 (HOP-92 NSCLC): 13 nM | TGI (HOP-92 NSCLC): 38.6 nM and 9.11 nM | GI50 (UACC-62 melanoma): 4.29 nM | TGI (UACC-62 melanoma): 16.1 nM and 8.61 nM | GI50 (HT29 colon): 21 nM | TGI (HT29 colon): 56.1 nM and 39.6 nM | GI50 (RXF 393 renal): 0.277 nM | GI50 (HCT-116 colon): 5.57 nM | GI50 (SF-295 CNS): 7.48 nM | TGI (SF-295 CNS): 86.7 nM and 25.9 nM | GI50 (KM12 colon): 6.28 nM | GI50 (MDA-N): 5.35 nM | GI50 (T-47D breast): 13.1 nM | TGI (T-47D breast): 185 nM and 64.1 nM | GI50 (IGROV1 ovarian): 32.2 nM | TGI (IGROV1 ovarian): 137 nM and 64.1 nM | GI50 (M14 melanoma): 2.77 nM | TGI (M14 melanoma): 9.85 nM and 6.27 nM | TGI (NCI-H226 lung): 8.28 nM | GI50 (TK-10 renal): 67 nM | TGI (TK-10 renal): 202 nM and 36.2 nM | GI50 (U251 CNS): 8.08 nM | GI50 (DU-145 prostate): 23.1 nM | TGI (DU-145 prostate): 137 nM and 37.7 nM | TGI (SK-MEL-5 melanoma): 15.5 nM and 7.96 nM | GI50 (SNB-19 CNS): 4.86 nM | TGI (SNB-19 CNS): 15.8 nM and 15.1 nM | GI50 (SNB-75 CNS): 4.7 nM | TGI (SNB-75 CNS): 39.5 nM and 4.2 nM | GI50 (SK-OV-3 ovarian): 10.6 nM | TGI (SK-OV-3 ovarian): 42.1 nM and 34.8 nM | GI50 (SK-MEL-2 melanoma): 3.53 nM | TGI (SK-MEL-2 melanoma): 11.2 nM and 8.49 nM | GI50 (HOP-62 NSCLC): 7.4 nM and 3.98 nM | TGI (HOP-62 NSCLC): 25.5 nM and 10.9 nM | GI50 (MDA-MB-435): 7.36 nM | GI50 (HCT-15 colon): 46.1 nM | TGI (HCT-15 colon): 203 nM and 55 nM | GI50 (NCI-H522 lung): 6.29 nM | TGI (NCI-H522 lung): 28.8 nM and 5.39 nM | GI50 (OVCAR-5 ovarian): 7.06 nM | TGI (OVCAR-5 ovarian): 23.9 nM and 27.5 nM | GI50 (MOLT-4 leukemia): 24.1 nM | TGI (MOLT-4 leukemia): 61.5 nM and 53.5 nM | GI50 (MDA-MB-231 breast): 11.7 nM | TGI (HCC-2998 colon): 9.25 nM | GI50 (SF-539 CNS): 4.56 nM | TGI (SF-539 CNS): 17.5 nM and 9.41 nM | GI50 (PC-3 prostate): 12.6 nM | TGI (PC-3 prostate): 35.2 nM and 19.1 nM | GI50 (SW-620 colon): 23.1 nM | TGI (SW-620 colon): 252 nM and 102 nM | GI50 (SK-MEL-28 melanoma): 4.33 nM | TGI (SK-MEL-28 melanoma): 15.1 nM and 6.35 nM | GI50 (MCF7 breast): 19.9 nM | TGI (MCF7 breast): 44.1 nM and 20.7 nM | GI50 (SR leukemia): 54.1 nM | GI50 (LOX IMVI melanoma): 5.88 nM | TGI (NCI-H23 lung): 32.3 nM | GI50 (CCRF-CEM leukemia): 5.78 nM | TGI (CCRF-CEM leukemia): 40.9 nM and 93.1 nM | GI50 (CAKI-1 renal): 16.8 nM | TGI (CAKI-1 renal): 52.3 nM and 40.9 nM | GI50 (NCI-H460 lung): 6.31 nM | TGI (NCI-H460 lung): 33.2 nM and 43.7 nM | GI50 (HS 578T breast): 2.65 nM | TGI (HS 578T breast): 27.1 nM and 19 nM | TGI (SF-268 CNS): 8.56 nM | GI50 (OVCAR-8 ovarian): 26.5 nM | GI50 (A498 renal): 31.5 nM

CCNC(=O)OCC1C2=C(C(=O)C(C)=C(N)C2=O)N2CC3C(N3C)C12OC (stereo not given)
TGI (ACHN renal): > 61900 nM | TGI (786-0 renal): > 83000 nM | TGI (UO-31 renal): 64300 nM | TGI (A549 NSCLC): > 100000 nM | TGI (K-562 leukemia): > 100000 nM | TGI (NCI/ADR-RES ovarian): > 100000 nM | TGI (OVCAR-4 ovarian): > 79000 nM | TGI (BT-549 breast): 99100 nM | TGI (RPMI-8226 leukemia): > 100000 nM | TGI (UACC-257 melanoma): > 100000 nM | TGI (OVCAR-3 ovarian): > 86200 nM | TGI (HL-60(TB) leukemia): > 44100 nM | TGI (SN12C renal): > 100000 nM | TGI (MALME-3M melanoma): 41800 nM | TGI (EKVX NSCLC): > 100000 nM | TGI (HOP-92 NSCLC): > 100000 nM | TGI (UACC-62 melanoma): 33400 nM | TGI (HT29 colon): > 100000 nM | TGI (RXF 393 renal): > 100000 nM | TGI (HCT-116 colon): > 63500 nM | TGI (SF-295 CNS): > 100000 nM | TGI (MDA-N): > 100000 nM | TGI (T-47D breast): > 100000 nM | TGI (IGROV1 ovarian): 77000 nM | TGI (M14 melanoma): > 100000 nM | TGI (NCI-H226 lung): > 100000 nM | TGI (TK-10 renal): > 100000 nM | TGI (U251 CNS): > 100000 nM | TGI (DU-145 prostate): > 100000 nM | TGI (SK-MEL-5 melanoma): 29500 nM | TGI (SNB-19 CNS): > 100000 nM | TGI (SNB-75 CNS): > 100000 nM | TGI (SK-OV-3 ovarian): > 100000 nM | TGI (SK-MEL-2 melanoma): 71200 nM | TGI (HOP-62 NSCLC): > 100000 nM | TGI (MDA-MB-435): > 100000 nM | TGI (HCT-15 colon): 50700 nM | TGI (NCI-H522 lung): 34500 nM | TGI (OVCAR-5 ovarian): > 100000 nM | TGI (MOLT-4 leukemia): > 76300 nM | TGI (MDA-MB-231 breast): > 100000 nM | TGI (HCC-2998 colon): 35300 nM | TGI (SF-539 CNS): > 85100 nM | TGI (PC-3 prostate): > 100000 nM | TGI (SW-620 colon): 32000 nM | TGI (SK-MEL-28 melanoma): > 100000 nM | TGI (MCF7 breast): > 100000 nM | TGI (SR leukemia): > 32600 nM | TGI (LOX IMVI melanoma): > 68700 nM | TGI (NCI-H23 lung): 14200 nM | TGI (CCRF-CEM leukemia): > 100000 nM | TGI (CAKI-1 renal): > 100000 nM | TGI (COLO 205 colon): > 100000 nM | TGI (NCI-H460 lung): 12100 nM | TGI (HS 578T breast): > 100000 nM | TGI (SF-268 CNS): > 100000 nM | TGI (OVCAR-8 ovarian): > 100000 nM | TGI (A498 renal): 77000 nM
